Measured values from patent US20190040025A1, “INDOLEAMINE 2,3-DIOXYGENASE INHIBITOR, PREPARATION METHOD THEREFOR, AND APPLICATION” (Jiangsu Hansoh Pharmaceutical Group Co., Ltd., priority 2016, published 2019).

How the values were obtained:
[1] = Pharmacokinetic (PK) analysis of rat plasma; assay type: in vivo; conditions: Sprague-Dawley, po, 20 mg/kg, SD rats, single gavage, 20 mg/10 mL/kg
Method: The pharmacokinetics test of the test compound was performed with Sprague Dawley (SD) rats (Shanghai Slac Laboratory Animal Co., LTD).
Mode of administration: Single gavage.
U Dosage: 20 mg/10 mL/kg.
Formulation prescription: 3% dimethylacetamide and 20% hydroxypropyl-3-cyclodextrin.
Sampling points: before administration and 15 minutes, 0.5, 1, 2, 4, 6, 8 and 24 hours after administration.
Plasma sampling and sample processing: • 1) 0.2 ml of intravenous blood was collected and placed in an EDTA-2K tube. The blood was centrifuged at 4° C. for 5 minutes at 6,000 rpm to separate the plasma, which was stored at −80° C. • 2) 160 μL of acetonitrile were added to 40 μL of plasma sample, standard, and internal reference. The mixture was shaken vertically for 3 minutes, and centrifuged at 4000 rpm for 10 minutes. 100 μL of the supernatant were taken, and then added with 100 μL of deionized water and mixed well. 100 μL of the resulting solution was taken for LC/MS/MS analysis. The instrument for plasma LC/MS/MS analysis was AB Sciex API 4000.
Liquid Chromatography Analysis: • Liquid chromatography conditions: Shimadzu LC-20AD pump • Chromatographic column: phenomenex Gemiu 5 μm C18 50×4.6 mm • Mobile phase: solution A was 0.1% formic acid solution, and solution B was acetonitrile • Flow rate: 0.8 mL/min • Elution time: 0-3.01 minutes and the eluent was as follows:
• Mass spectrometry analysis: setup conditions of mass spectrometer: positive ion electrospray ionization (ESI) mode. • Experimental results: the main parameters of pharmacokinetics were calculated by WinNonlin 6.1 and the experimental results are shown in the following table: […]

[2] = system: mouse rectal cancer cell line Colon26; experiment: Anti-tumor effect in Colon26 tumor-bearing mouse model; assay type: in vivo, mouse (Balb/c); conditions: Colon26 tumor-bearing mice
Description: The present invention further used the Colon26 tumor-bearing mouse model to test the anti-tumor effect of the example compounds. The Colon26 tumor-bearing mouse model was the mouse rectal cancer cell line Colon26 purchased from Guangzhou Ginio Biological Technology Co., Ltd., and the culture medium used was RPMI1640 containing 10% fetal bovine serum. The mouse strain used for tumor-bearing was Balb/c purchased from Sino-British SIPPR/BK Lab Animal Co., Ltd. At the time of implanting, the Colon26 cells in logarithmic growth phase were collected and mixed to 10 million cells/ml. Each mouse was implanted subcutaneously with 100 μl of one million cells. When the tumor grew to about 100 cubic millimeters, animals were randomly divided into groups with 8 animals per group. Drug administration was started (D0).
Mode of administration: intragastric administration, twice a day.
(§1) Formulation prescription: 3% dimethylacetamide and 20% hydroxypropyl-β-cyclodextrin. • Administration period and tumor measurement: The administration period was 13 days. The tumor volume was measured, the mice were weighed, and the data were recorded, 3 times per week. The calculation formula of tumor volume (V) is: V=½a×b2 where a and b represent length and width, respectively. The calculation formula of T/C is: T/C (%)=100×ΔT/ΔC. Tumor inhibition rate (%)=1−T/C (%). • Experimental results: The antitumor effect of the compound of Example 15 in Colon26 tumor-bearing mouse model is shown in the following table.
Under the same experimental conditions, the dosage was adjusted. The anti-tumor effect of Example 15 and its optical isomers 18-(1) and 18-(2) in Colon26 tumor-bearing mouse model is shown in the following table: […]

[3] = system: mouse pancreatic cancer cell line PAN02; experiment: Anti-tumor effect in PAN02 tumor-bearing mouse model; assay type: in vivo, mouse (C57/BL6); conditions: PAN02 tumor-bearing mice, 50 mg/kg intragastric twice a day
Description: The invention used the PAN02 tumor-bearing mouse model to test the anti-tumor effect of the example compounds. The PAN02 tumor-bearing mouse model was the mouse pancreatic cancer cell line PAN02 purchased from Guangzhou Ginnio Biological Technology Co., Ltd., and the culture medium used was DMEM containing 10% fetal bovine serum. The mouse strain used for tumor-bearing was C57/BL6 purchased from Shanghai Slac Laboratory Animal Co., Ltd. At the time of implanting, the PAN02 cells in the logarithmic growth phase were collected, and mixed with the BDMatrigel matrix gel that reduced the growth factor to 50 million cells/ml. Each mouse was implanted subcutaneously with 100 μL of 5 million cells. When the tumor grew to about 100 cubic millimeters, animals were randomly divided into groups with 8 animals per group. Drug administration was started (D0).
Mode of administration: intragastrical administration, twice a day.
as §1, with “3% two methyl acetamide” for “3% dimethylacetamide”, “times a” for “times per”, “is: V=½a×b2,” for “is: V=½a×b2”, “and width” for “and width,”, “results: the anti-tumor” for “results: The antitumor”, “in PAN02” for “in Colon26”

[4] = 25 mg/kg intragastric twice a day, D12

## CS(=O)(CCNc1nonc1/C(=N/O)Nc1ccc(F)c(Br)c1)=NS(=O)(=O)C1CC1 (stereo not shown) [Example 15, (Z)—N-(3-bromo-4-fluorophenyl)-4-((2-(N-(cyclopropylsulfonyl)-S-methylsulfonimidoyl)ethyl)amino)-N′-hydroxy-1,2,5-oxadiazole-3-carboximidamide]
[1]
  AUC(0-inf): 5180 ng·h/mL
  Cmax: 1350 ng/mL
  Tmax: 0.5 h
  half-life: 3.54 h
[2]; 10 mg/kg, D12
  Tumor inhibition rate (%) D12: 71.10%
[2]; 25 mg/kg intragastric twice a day, D0 (start of administration)
  Average tumor volume (mm^3 ± SEM) D0: 95.5 ± 2.0 mm^3
[2]; [4]
  Average tumor volume (mm^3 ± SEM) D12: 212.7 ± 28.9 mm^3
  T/C (%) D12: 5.4%
[2]; 25 mg/kg intragastric twice a day, D12, 25 mg/kg
  Tumor inhibition rate (%) D12: 94.6%
[3]; D0 (start of administration)
  Average tumor volume (mm^3 ± SEM) D0: 105.0 ± 3.4 mm^3
[3]; D12
  Average tumor volume (mm^3 ± SEM) D12: 163.3 ± 11.0 mm^3
  T/C (%) D12: 25.2%
[3]; D12, 50 mg/kg
  Tumor inhibition rate (%) D12: 74.8%
